In patent publication US5461059A, “Derivatives of terbutylphenyl-1-amino-4-hydroxybutane their preparation processes and the pharmaceutical compositions containing them” (priority 1990, dated 1995):
pIC50: −log10 of the molar value. Where two headings read alike, the source gives them in different places.

Columns and labels:
[1] = type: in vivo, mice
Text: The principle of this test consists in chronometering the duration for which mice maintain itself on a rod rotating at a constant speed. Compounds which are endowed with sedative or myorelaxing or inhibitory of the motor coordination, will induce a precocious fall, before 120 seconds which are the maximals period of study. […] This test takes place 30 mn and 60 mn after administration. […] Chlorpromazine, major neuroleptic used as positive standard in the Rota-rod Test, caused the fall before the time granted, of 90% of the mice from the dosage of 4 mg/kg by intraperitoneal way.

[2] = Irwin's test (modified, Morpurgo), behaviour in mice; type: in vivo; details: oral
Method: The Irwin's test, modified according to Morpurgo's Technique (1971) has been carried out to search optional alterations of the spontaneous behaviour under the action of the compound of example III or of a H1-antihistaminic of the first generation Dexchloropheniramine, known to induce some effects of drowsiness in the person. After administration by oral way, the mice have been kept under observation for 30 mn then have submitted to a seri. of simple test of behavioural screening after 30 mn, 3 hours and 24 hours.

[3] = target: T1, Peripheral sites to the benzodiazepines (Rattus norvegicus, UniProt P16257); experiment: Affinity for peripheral sites to benzodiazepines ([3H]PK 11195); type: binding
T1 construct: membranar receptors of various rats organs; from tissue; host or cells: rat cortex
Method: (§1) A broad range of membranar receptors of various rats organs has been tested according to the same principle than the H1 receptor under the following conditions which are summarized:
Peripheral sites to the benzodiazepines: Cortex 90 mn at 25° C. in 90 mM PO4 HNa2 /PO4 H2 K buffer, 81 mM ClNa and […] (pH 7.4) against 1 nM [^3 H]PK 11195.
(§2) The more weak is the CI50, the more high is the affinity.

[4] = target: T2, GABAB (Rattus norvegicus, UniProt Q9Z0U4); experiment: Affinity for GABAB ([3H]Baclofen); type: binding
T2 construct: membranar receptors of various rats organs; from tissue; host or cells: rat cerebellum
Method: as §1
GABAB : Cerebellum, 10 mn at 22° C. in 50 mM TRIS-ClH buffer (pH 7.4) added to 1.2 mM SO^4 Mg and 2.5 mM Cl2 Ca, against 20 nM of [^3 H] Baclofen.
as §2

[5] = target: T3, Adenosine A1 (Rattus norvegicus, UniProt P25099); experiment: Affinity for adenosine A1 ([3H]cyclohexyladenosine); type: binding
T3 construct: membranar receptors of various rats organs; from tissue; host or cells: rat cortex
T3 sequence (P25099 1-326): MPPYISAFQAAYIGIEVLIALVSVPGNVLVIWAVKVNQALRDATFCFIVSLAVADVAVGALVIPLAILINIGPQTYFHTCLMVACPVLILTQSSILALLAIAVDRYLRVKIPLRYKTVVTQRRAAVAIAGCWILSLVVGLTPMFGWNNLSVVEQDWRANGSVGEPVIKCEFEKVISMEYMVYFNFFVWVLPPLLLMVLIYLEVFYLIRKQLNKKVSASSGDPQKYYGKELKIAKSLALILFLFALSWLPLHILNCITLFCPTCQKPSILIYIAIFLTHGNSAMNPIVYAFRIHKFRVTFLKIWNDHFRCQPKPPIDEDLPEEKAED
Method: as §1
Adenosine A1: cortex, 90 mn at 25° C. in 50 mM TRIS-ClH buffer (pH 7.7) against 1 nMol of [^3 H] cyclohexyladenosine
as §2

[6] = target: T4, Adenosine A2 (Rattus norvegicus, UniProt P30543); experiment: Affinity for adenosine A2 ([3H]NECA); type: binding
T4 construct: membranar receptors of various rats organs; from tissue; host or cells: rat striatum
Method: as §1
Adenosine A2: striatum 60 mn at 25° in 50 mM TRIS-ClH buffer (pH 7.7) added with 50 nM cyclopentyladenosine, 10 mM Cl2 Mg and 0.1 Unit/ml […] against 4 nM of [^3 H] NECA (5'-N-ethylcarboxamido adenosine).
as §2

[7] = target: T5, Muscarinic M2 (Rattus norvegicus, UniProt P10980); experiment: biochemical; type: binding
T5 sequence (P10980 1-466): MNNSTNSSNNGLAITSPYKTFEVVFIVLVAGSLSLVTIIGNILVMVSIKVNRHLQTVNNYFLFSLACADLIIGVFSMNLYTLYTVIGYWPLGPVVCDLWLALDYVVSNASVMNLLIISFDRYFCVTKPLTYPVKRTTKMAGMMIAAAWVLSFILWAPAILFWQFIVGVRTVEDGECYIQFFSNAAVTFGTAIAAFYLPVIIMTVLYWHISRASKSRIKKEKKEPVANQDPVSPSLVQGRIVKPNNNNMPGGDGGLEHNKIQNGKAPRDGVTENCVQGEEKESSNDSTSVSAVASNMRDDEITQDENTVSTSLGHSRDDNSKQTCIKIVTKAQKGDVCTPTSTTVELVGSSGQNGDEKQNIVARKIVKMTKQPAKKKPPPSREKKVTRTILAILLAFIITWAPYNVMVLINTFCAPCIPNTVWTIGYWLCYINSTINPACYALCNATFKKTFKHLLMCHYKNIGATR

[8] = test system: GABAA; experiment: Affinity for GABAA ([3H]Muscimol); type: binding; details: rat whole brain; 5 nM [3H]Muscimol, pH 7.2; read-out: CI50 (the source's name)
Method: GABAA : whole brain 20 mn at 4° C., in 50 nM TRIS-ClH buffer (pH 7.2) added to 0.5%. TRITON X-100, against 5 nM [^3 H] Muscimol.

[9] = test system: Central sites to benzodiazepines; experiment: Affinity for central sites to benzodiazepines ([3H]-Flunitrazepam); type: binding; details: rat whole brain; 0.3 nM [3H]-Flunitrazepam, pH 7.1; read-out: CI50 (the source's name)
Method: Central sites to benzodiazepines: whole brain, 90 mn at 0° C. in 50 mM TRIS-ClH buffer (pH 7.1) against 0.3 nM [^3 H]-Flunitrazepam.

[10] = target: T6, Sigma receptor (Rattus norvegicus, UniProt Q9R0C9); experiment: Affinity for Sigma receptors ([3H](+)3-PPP); type: binding
T6 construct: membranar receptors of various rats organs; from tissue; host or cells: rat whole brain
Method: as §1
Sigma receptors: whole brain, 2 hours at 22° C. in 50 mM TRIS-ClH buffer (pH 8) against 2 nM of [^3 H] (+)3-PPP (3-(3-hydroxyphenyl)N-(1-propyl) piperidine).
as §2

[11] = test system: bronchospasm due to histamine; experiment: Bronchospasm to histamine aerosol in guinea pigs, oral; type: in vivo, guinea pig; details: single dosage 10 mg/kg
Method: By oral way the single dosage of 10 mg/kg has been studied as a function of time.

[12] = test system: bronchospasm due to histamine; experiment: Bronchospasm to histamine aerosol in guinea pigs, intraperitoneal; type: in vivo, guinea pig; details: for ED50: Cavia porcellus, ip, 0.5 h, read-out: ED50 (efficient dosage at 50%) against histamine bronchospasm
Method: Inhalating an aerosol at 1%, of histamine (aqeuous solution in distilled water, nebulization with a apparatus HOSPITAK) causes in the guinea pigs, a bronchospasm which leads with immobilization of the animals on their own side. The time needed for the animals to lie down is measured for 5 minutes maximum.

[13] = target: T7, Muscarinic M1 (Rattus norvegicus, UniProt P08482); experiment: Affinity for muscarinic M1 ([3H]-pirenzepine); type: binding; details: rat cortex, striatum and hypocampus; 2 nM [3H]-pirenzepine, pH 7.4; read-out: CI50 (the source's name)
T7 construct: membranar receptors of various rats organs; from tissue; host or cells: rat cortex, striatum and hippocampus (pool)
T7 sequence (P08482 1-460): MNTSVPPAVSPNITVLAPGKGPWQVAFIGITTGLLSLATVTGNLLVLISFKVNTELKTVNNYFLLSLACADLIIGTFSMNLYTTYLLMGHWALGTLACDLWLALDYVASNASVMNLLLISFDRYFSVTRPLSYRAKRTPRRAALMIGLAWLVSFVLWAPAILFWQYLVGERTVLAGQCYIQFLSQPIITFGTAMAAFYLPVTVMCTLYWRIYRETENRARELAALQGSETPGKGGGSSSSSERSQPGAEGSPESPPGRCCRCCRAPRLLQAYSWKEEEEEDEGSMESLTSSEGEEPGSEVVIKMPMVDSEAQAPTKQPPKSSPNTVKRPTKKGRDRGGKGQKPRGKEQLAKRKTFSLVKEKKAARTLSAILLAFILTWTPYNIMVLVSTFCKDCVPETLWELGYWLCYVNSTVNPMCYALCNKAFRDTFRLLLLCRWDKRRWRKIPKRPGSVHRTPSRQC
Method: Muscarinic M1: pool of cortex, striatum and hypocampus, 60 mn at 25° C. in 10 mM PO4 HNa2 /PO4 H2 K buffer (pH 7.4) against 2 nM [^3 H]-pirenzepinc.

[14] = Single maximal non-toxic dosage by oral way in mice; type: in vivo; details: single oral dosage until 1000 mg/kg
Method: On the other side a mydriasis has been noticed after 3 hours. […] This is less fine than the Irvin's Test during which the animals are handled and interact with the experimenter.

[15] = target: T8, H1-receptors of guinea pigs lungs (Cavia porcellus, UniProt P31389); experiment: Affinity for H1 receptors, guinea pig lung membranes ([3H]Mepyramine); type: binding; details: read-out: CI50 (50% inhibitory concentration) on H1 receptors, 2 nM tritiated Mepyramine, 30 mn, 25° C., pH 7.4
T8 construct: membranar preparations of homogenates of rat cortexes or guinea pig lungs; from tissue; host or cells: guinea pig lung membranes
Method: (§3) After 30 mn at 25° C. and at pH 7.4, in a 50 mM TRIS-ClH buffer for the membrans of the cortex or a 0.5 M PO4 HNa2 /PO4 H2 K buffer for the lungs membrans, the residual bound fraction of tritiated ligand is counted by scintillation in a liquid medium after filtration on an apparatur of the Brandel's type and several washings.

[16] = target: receptors of H1-type (Cavia porcellus, UniProt P31389); experiment: Histamine contraction of isolated ileon of guinea pig; details: for activity compared with Terfenadine on isolated ileon: difference not significant
Text: The shift of the relationship between contracturing effect and concentration of histamine by the compound to be studied, stamps an anti-H1 activity.

[17] = target: T9, H1 receptors of rat cortexes (Rattus norvegicus, UniProt P31390); experiment: Affinity for H1 receptors, rat cortex membranes ([3H]Mepyramine); type: binding; details: read-out: CI50 (50% inhibitory concentration) on H1 receptors, 2 nM tritiated Mepyramine, 30 mn, 25° C., pH 7.4
T9 construct: membranar preparations of homogenates of rat cortexes or guinea pig lungs; from tissue; host or cells: rat cortex membranes
Method: as §3

[18] = rat cortex, 1 nM [3H]PK 11195, pH 7.4, read-out: CI50 (the source's name)
[19] = rat cerebellum, 20 nM [3H]Baclofen, pH 7.4, read-out: CI50 (the source's name)
[20] = rat cortex, 1 nMol [3H]cyclohexyladenosine, pH 7.7, read-out: CI50 (the source's name)
[21] = rat striatum, 4 nM [3H]NECA, pH 7.7, read-out: CI50 (the source's name)
[22] = intraperitoneal, 10 mg/kg, 30 minutes after administration

T4 sequence (P30543 whole entry): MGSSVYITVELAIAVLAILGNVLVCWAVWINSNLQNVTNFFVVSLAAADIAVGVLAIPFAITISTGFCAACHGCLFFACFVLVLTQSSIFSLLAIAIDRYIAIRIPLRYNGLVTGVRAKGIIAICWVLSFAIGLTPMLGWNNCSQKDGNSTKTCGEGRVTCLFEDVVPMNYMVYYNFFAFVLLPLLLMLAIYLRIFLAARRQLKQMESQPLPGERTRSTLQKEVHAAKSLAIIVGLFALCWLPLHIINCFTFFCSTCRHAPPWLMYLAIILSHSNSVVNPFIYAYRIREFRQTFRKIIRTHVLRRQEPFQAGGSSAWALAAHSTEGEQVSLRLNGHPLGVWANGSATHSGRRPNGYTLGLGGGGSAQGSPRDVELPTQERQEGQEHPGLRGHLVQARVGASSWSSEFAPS
T6 sequence (Q9R0C9 whole entry): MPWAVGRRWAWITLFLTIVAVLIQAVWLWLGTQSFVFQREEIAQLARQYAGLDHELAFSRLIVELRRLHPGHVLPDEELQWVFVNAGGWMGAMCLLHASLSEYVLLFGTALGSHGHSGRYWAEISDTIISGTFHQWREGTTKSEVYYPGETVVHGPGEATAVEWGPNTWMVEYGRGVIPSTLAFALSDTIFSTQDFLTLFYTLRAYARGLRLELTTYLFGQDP
Chain of receptors of H1-type (P31389 whole entry): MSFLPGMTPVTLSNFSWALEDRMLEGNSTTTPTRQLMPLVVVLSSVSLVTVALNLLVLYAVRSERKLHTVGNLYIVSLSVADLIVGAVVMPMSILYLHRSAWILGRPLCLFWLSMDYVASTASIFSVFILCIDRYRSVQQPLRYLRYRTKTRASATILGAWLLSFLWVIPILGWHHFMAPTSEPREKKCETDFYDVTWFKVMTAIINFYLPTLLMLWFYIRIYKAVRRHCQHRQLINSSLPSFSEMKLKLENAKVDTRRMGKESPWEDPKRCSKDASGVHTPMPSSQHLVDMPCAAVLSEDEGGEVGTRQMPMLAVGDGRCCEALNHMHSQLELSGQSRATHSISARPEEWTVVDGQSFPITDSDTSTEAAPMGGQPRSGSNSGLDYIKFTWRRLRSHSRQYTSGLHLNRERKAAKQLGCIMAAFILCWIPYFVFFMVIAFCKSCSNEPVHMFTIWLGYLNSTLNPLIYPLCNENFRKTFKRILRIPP
T2 sequence (Q9Z0U4 17-960 limits assumed): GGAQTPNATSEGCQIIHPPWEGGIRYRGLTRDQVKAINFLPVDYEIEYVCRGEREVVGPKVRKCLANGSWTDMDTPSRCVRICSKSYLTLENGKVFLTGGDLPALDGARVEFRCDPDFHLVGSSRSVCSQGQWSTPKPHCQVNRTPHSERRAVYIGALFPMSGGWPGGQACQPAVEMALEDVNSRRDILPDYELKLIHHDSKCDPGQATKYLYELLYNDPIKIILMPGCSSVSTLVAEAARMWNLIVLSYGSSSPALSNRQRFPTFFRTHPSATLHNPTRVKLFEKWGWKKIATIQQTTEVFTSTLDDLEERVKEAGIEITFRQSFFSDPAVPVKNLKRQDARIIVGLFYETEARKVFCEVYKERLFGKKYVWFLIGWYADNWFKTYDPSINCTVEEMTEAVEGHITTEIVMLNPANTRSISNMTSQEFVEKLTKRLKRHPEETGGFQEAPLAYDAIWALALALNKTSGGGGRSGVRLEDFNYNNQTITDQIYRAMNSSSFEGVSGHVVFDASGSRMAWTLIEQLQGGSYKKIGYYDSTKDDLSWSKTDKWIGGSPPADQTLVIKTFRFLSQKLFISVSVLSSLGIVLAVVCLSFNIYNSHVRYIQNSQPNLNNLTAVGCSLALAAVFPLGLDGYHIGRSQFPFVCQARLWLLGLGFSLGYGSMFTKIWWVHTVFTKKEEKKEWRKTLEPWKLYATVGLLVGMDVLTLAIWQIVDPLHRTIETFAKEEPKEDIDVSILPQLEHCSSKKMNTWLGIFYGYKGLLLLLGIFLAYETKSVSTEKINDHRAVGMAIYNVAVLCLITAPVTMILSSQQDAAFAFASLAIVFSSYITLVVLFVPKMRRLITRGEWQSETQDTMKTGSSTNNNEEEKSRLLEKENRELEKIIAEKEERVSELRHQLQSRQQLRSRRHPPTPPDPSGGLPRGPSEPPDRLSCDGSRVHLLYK
T2 sequence (O88871 41-940 partner): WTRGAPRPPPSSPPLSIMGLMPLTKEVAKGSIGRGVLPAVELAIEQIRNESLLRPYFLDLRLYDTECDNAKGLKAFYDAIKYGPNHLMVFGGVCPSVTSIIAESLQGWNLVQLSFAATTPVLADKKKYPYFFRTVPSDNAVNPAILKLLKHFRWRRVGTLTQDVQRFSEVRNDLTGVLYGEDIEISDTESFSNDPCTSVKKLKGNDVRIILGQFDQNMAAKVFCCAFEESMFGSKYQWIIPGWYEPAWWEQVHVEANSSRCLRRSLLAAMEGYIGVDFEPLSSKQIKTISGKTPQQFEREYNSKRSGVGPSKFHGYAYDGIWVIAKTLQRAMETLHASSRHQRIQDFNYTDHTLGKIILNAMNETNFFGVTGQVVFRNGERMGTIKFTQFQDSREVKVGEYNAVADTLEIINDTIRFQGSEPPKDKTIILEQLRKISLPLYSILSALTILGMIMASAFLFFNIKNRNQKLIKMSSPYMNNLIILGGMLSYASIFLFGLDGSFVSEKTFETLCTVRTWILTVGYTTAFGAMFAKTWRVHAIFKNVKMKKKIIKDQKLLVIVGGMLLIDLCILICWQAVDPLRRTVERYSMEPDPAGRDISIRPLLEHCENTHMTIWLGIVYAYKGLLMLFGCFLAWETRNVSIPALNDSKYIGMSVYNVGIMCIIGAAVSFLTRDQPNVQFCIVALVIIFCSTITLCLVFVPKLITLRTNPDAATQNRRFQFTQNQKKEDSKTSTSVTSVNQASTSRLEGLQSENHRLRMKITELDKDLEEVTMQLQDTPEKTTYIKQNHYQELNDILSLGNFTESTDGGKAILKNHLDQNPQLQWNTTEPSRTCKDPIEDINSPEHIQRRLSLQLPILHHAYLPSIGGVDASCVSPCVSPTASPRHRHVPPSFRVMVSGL
T9 sequence (P31390 whole entry): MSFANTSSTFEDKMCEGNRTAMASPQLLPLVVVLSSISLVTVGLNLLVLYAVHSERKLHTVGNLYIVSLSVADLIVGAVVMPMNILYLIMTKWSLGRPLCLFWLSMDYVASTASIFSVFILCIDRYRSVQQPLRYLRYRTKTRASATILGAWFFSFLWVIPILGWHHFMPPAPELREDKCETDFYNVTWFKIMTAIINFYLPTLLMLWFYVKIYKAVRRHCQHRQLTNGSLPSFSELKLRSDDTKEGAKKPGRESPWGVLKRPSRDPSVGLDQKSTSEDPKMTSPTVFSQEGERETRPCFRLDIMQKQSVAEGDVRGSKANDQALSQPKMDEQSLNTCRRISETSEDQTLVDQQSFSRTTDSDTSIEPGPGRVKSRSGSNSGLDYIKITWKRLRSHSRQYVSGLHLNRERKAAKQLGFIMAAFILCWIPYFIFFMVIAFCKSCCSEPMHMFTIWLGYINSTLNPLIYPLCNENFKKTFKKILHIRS
T8 sequence (P31389 whole entry): as the sequence (P31389 whole entry) above

CN(C)CCCN1c2ccccc2Sc2ccc(Cl)cc21 [Chlorpromazine]
mice falling before the time granted (120 seconds) ([1]; intraperitoneal, from 4 mg/kg): 90%

CN(C)CC[C@@H](c1ccc(Cl)cc1)c1ccccn1 [Dexchlorpheniramine]
behavioural alteration (Irwin's test) ([2]; 100 mg/kg, 30 mn): a hyperactivity and a slight irritability | behavioural alteration (hyperactivity and slight irritability) ([2]; 100 mg/kg, 3 hours): persisting | behavioural alteration (hyperactivity and slight irritability) ([2]; 100 mg/kg, 24 hours): disappearing | ocular effect (Irwin's test) ([2]; 100 mg/kg, after 3 hours): mydriasis

COc1ccc(CN(CCN(C)C)c2ccccn2)cc1 [Mepyramine]
pIC50 [3, 18]: < 5.00 | pIC50 [4, 19]: < 5.00 | pIC50 [5, 20]: < 5.00 | pIC50 [6, 21]: < 5.00 | pIC50 [7]: 5.46 | pIC50 [8]: < 5.00 | pIC50 [9]: < 5.00 | pIC50 [10]: 6.23 | affinity for Sigma-receptor, times weaker than pentazocine ([10]; versus pentazocine): ~20 times weaker

CC(C)(C)c1ccc(C(O)CCCN2CCC(C(O)(c3ccccc3)c3ccccc3)CC2)cc1 (centres unmarked) [Terfenadine]
duration of protection against histamine bronchospasm [11]: 4 h | ED50 [12]: ~7 mg/kg | protection against histamine bronchospasm ([12]; intraperitoneal): poorly efficient | protection against histamine bronchospasm [12, 22]: total protection of all the animals | pIC50 [3]: < 5.00 | pIC50 [4]: < 5.00 | pIC50 [5]: < 5.00 | pIC50 [6]: < 5.00 | pIC50 [7]: < 5.00 | pIC50 [8]: < 5.00 | pIC50 [9]: < 5.00 | pIC50 [10]: < 5.00

CC(C)(C)c1ccc(C(O)CCCN2CCN(c3nc4ccccc4n3Cc3ccc(F)cc3)CC2)cc1 (centres unmarked) [example III]
pIC50 [13]: < 5.00 | duration of protection against histamine bronchospasm [11]: 12 h | animals with total protection (more than 5 minutes) at 24 hours ([11]; 24 hours): 50% | ED50 ([12]; intraperitoneal, from regression curve): ~6.7 mg/kg | protection against histamine bronchospasm ([12]; intraperitoneal): poorly efficient | protection against histamine bronchospasm [12, 22]: total protection of all the animals | pIC50 [3, 18]: < 5.00 | clinical symptoms, search for maximal non-toxic dosage [14]: do not display any clinical symptom | pIC50 [4, 19]: < 5.00 | pIC50 [5, 20]: < 5.00 | pIC50 [6, 21]: < 5.00 | pIC50 ([7]; pH 7.5, read-out: CI50 (the source's name)): < 5.00 | pIC50 [15]: 5.57 | alteration of rota-rod performance ([1]; oral, until highest tested dosage 100 mg/kg, 30 and 60 mn, versus vehicle): did not alter the performances | pIC50 [8]: < 5.00 | pIC50 [9]: < 5.00 | behavioural alteration (Irwin's test) ([2]; maximal tested dosage 400 mg/kg, at 3 hours only): a very weak passivity in half of the animals | pIC50 ([10]; rat whole brain, 2 nM [3H](+)3-PPP, pH 8, read-out: CI50 (the source's name)): < 5.00 | effect on histamine contraction of isolated ileon ([16]; 10^-5 M): partially irreversible inhibition | activity compared with Terfenadine on isolated ileon ([16]; 10^-5 M): the opposite seems to be produced | effect on histamine contraction of isolated ileon ([16]; 10^-6 M): inhibition of the competitive type | activity compared with Terfenadine on isolated ileon ([16]; 10^-6 M): slightly more active than Terfenadine | effect on histamine contraction of isolated ileon ([16]; 10^-7 M): no effect | pIC50 [17]: 5.96
